# From patent US10501748B2, “Methods and compositions for integration of an exogenous sequence within the genome of plants” (Dow AgroSciences LLC, priority 2013, dated 2019)
# Legend:
# [1] = system: regenerated plants of wild-type cv. Bobwhite MPB26RH; test: basal tolerance to sulfometuron methyl at the plant rooting stage; type: in vivo, Triticum aestivum; conditions: wild-type donor wheat line; 3 weeks
# Procedure: The basal tolerance of the wild-type donor wheat line to sulfometuron methyl at the plant rooting stage was determined as follows: scutella of immature zygotic embryos were isolated and placed in 10 cm petri dishes containing CIM medium. Then SEC was allowed to form by incubating at 24° C. in the dark for 4 weeks. The SEC was transferred to 10 cm petri dishes containing DRM medium and incubated for 2 weeks at 24° C. under a 16/8 (light/dark) hour photoperiod to allow plant regeneration to take place. Regenerated plants were transferred to 10 cm petri dishes containing RM medium supplemented with 0, 100, 200, 250, 300, 400, 500, 1000 and 2000 nM sulfometuron methyl, respectively. Ten regenerated plants were placed in each petri dish. A total of 30 regenerated plants were tested for basal tolerance response at each sulfometuron methyl concentration. After incubation for 3 weeks at 24° C. under a 16/8 (light/dark) hour photoperiod in a growth room, the root formation response was recorded.
# [2] = system: somatic embryogenic callus of wild-type cv. Bobwhite MPB26RH; test: basal tolerance to sulfometuron methyl at the plant regeneration stage; type: cell-based, Triticum aestivum; conditions: wild-type donor wheat line; 2000 nM; 2 weeks; compared to untreated samples
# Procedure: The basal tolerance of the wild-type donor wheat line to sulfometuron methyl at the plant regeneration stage was determined as follows: scutella of immature zygotic embryos from the donor wheat line were isolated and placed in 10 cm petri dishes containing CIM medium. Then SEC was allowed to form by incubating at 24° C. in the dark for 4 weeks. The SEC was transferred to 10 cm petri dishes containing DRM medium supplemented with 0, 100, 500, 1000, 1500, 2000, 2500 and 3000 nM sulfometuron methyl, respectively. Twenty CIM were placed in each petri dish. A total of 60 CIM were tested for basal tolerance response at each sulfometuron methyl concentration. After incubation for 2 weeks at 24° C. under a 16/8 (light/dark) hour photoperiod in a growth room, the regeneration response was recorded.
# [3] = system: scutella of wild-type cv. Bobwhite MPB26RH (P197/P197); test: basal tolerance to sulfometuron methyl at the callus induction stage; type: cell-based, Triticum aestivum; conditions: 100 nM, 4 weeks, compared to untreated samples
# Procedure: A series of experiments were performed to determine optimal selection conditions for regenerating wheat plants expressing the AHAS (P197S) mutation conferring tolerance to sulfonylurea class herbicides. These experiments were based on testing the basal tolerance of the wild-type donor wheat line cv. Bobwhite MPB26RH (P197/P197 genotype, which confers susceptibility to sulfonylureas) at the callus induction, plant regeneration and rooting stages of an established wheat transformation system. Similar experiments were performed to determine the basal tolerance of transgenic cv. Bobwhite MPB26RH events that had randomly integrated T-DNA expressing the AHAS (P197S) mutation, which confers tolerance to sulfonylurea selection agents.
# The basal tolerance of the wild-type donor wheat line to sulfometuron methyl at the callus induction stage was determined as follows: scutella of immature zygotic embryos were isolated, as previously described in Example 4, and placed in 10 cm petri dishes containing CIM medium supplemented with 0, 100, 500, 1000, 1500 and 2000 nM sulfometuron methyl, respectively. Twenty scutella were placed in each petri dish. A total of 60 scutella were tested at each sulfometuron methyl concentration. After incubation at 24° C. in the dark for 4 weeks, the amount of somatic embryogenic callus formation (SEC) at each sulfometuron methyl concentration was recorded. […]
# [4] = system: transgenic wheat events with low-copy T-DNA expressing AHAS (P197S); test: basal tolerance to sulfometuron methyl at the rooting stage of transgenic AHAS (P197S) events; type: in vivo, Triticum aestivum; conditions: transgenic AHAS (P197S) events from pDAS000164; 400-600 nM; 2 weeks
# Procedure: The basal tolerance of transgenic wheat events with randomly integrated, low-copy (≤3) T-DNA expressing the AHAS (P197S) mutation to sulfometuron methyl from pDAS000164 at the plant rooting stage was determined as follows: four independent transgenic events were randomly selected and multiplied in vitro by sub-culturing on multiplication medium. Following multiplication, plants for each event were transferred to 10 cm petri dishes containing RM medium supplemented with 0, 400, 450, 500, 550 and 600 nM sulfometuron methyl, respectively. Four plants (one from each of the four events) were placed in each petri dish. A total of 3 plants per event were tested for basal tolerance at each sulfometuron methyl concentration. After incubation for 2 weeks at 24° C. under a 16/8 (light/dark) hour photoperiod in a growth room, the root formation response was recorded.
# [5] = system: protoplasts of SEC-derived cell suspension culture of cv. Bobwhite MPB26RH; test: basal tolerance to BASTA of protoplast agarose bead-type cultures (calli growth); type: cell-based, Triticum aestivum; conditions: 2 weeks
# Source text: BASTA® selection conditions are optimized using protoplasts derived from somatic embryogenic callus (SEC)-derived cell suspension culture of the wheat line cv. Bobwhite MPB26RH. While protoplasts derived from Bobwhite MPB26RH are non-totipotent (i.e., cannot be used to regenerate entire plants), the selection conditions established for enriching the events that express the PAT gene are expected to be transferable to any protoplast-based transformation system based on a totipotent wheat genotype. The experiments are conducted, and the basal tolerance of the wild-type donor wheat line cv. Bobwhite MPB26RH to BASTA® is established. The use of BASTA® selection conditions stronger than basal tolerance are identified and used to select for transformed cells expressing the PAT gene.
# Protoplasts are isolated from an established SEC-derived cell suspension culture and used to establish agarose bead-types cultures, as described previously. The basal tolerance of wheat line cv. Bobwhite MPB26RH to BASTA® is determined by incubating the agarose bead-type cultures in media supplemented with 0, 0.5, 2.5, 5, 7.5, 10, 20, 30, 40 and 50 mg/L BASTA® and assessing the rate of calli growth after 2 weeks. The BASTA® concentrations (e.g., higher than 20 mg/L) that severely impeded calli development are optimal for enriching and selecting wheat cells having the PAT gene.
SMILES,concentrations at which root formation was severely inhibited [1],reduction of plant regeneration [2],reduction of SEC formation [3],root formation compared to untreated controls [4],concentrations that severely impeded calli development [5]
COC(=O)c1ccccc1S(=O)(=O)NC(=O)Nc1nc(C)cc(C)n1 [sulfometuron methyl],higher than 400 nM,about 80%,about 70%,not restricted,–
"CP(=O)(O)CCC(N)C(=O)O (racemic) [BASTA, DL-Phosphinothricin]",–,–,–,–,higher than 20 mg/L
